Patent publication US12612408B2, “Pyrazolone-fused pyrimidine compound, preparation method for same and applications thereof” (SHANGHAI PHARMACEUTICALS HOLDING CO., LTD., priority 2019, dated 2026)

Molecular target: T1, WEE1 kinase (Homo sapiens, UniProt P30291)
T1 construct: purchased CarnaBiosciences, Inc. 05-177
Experiment: Inhibitory effect of compound on WEE1 kinase in vitro (ELISA)
Type: biochemical
Conditions: ATP concentration of Km
Protocol: The tested compounds were screened on WEE1 kinase with ATP concentration of Km by ELISA. Compounds were screened on WEE1 kinase to evaluate the kinase inhibitory activity of the tested compounds. In the detection process, the initial concentration of the tested compounds was all selected as 100 nM, and each compound was selected with 6 gradient dilution concentrations, the gradient dilution ratio was 4-fold, and two replicate wells were detected for each concentration, MK1775 was used as the standard control.
WEE1, purchased from CarnaBiosciences, Inc., Item No. 05-177; dimethyl sulfoxide, purchased from Sigma-Aldrich, Item No. D8418; ATP, purchased from Sigma-Aldrich, Item No. A7699; DTT solution, purchased from Sigma-Aldrich, Item No. 43816; protein tyrosine kinase (PTK) substrate (poly-Glu-Tyr), purchased from Sigma-Aldrich, Item No. P4476; P-Tyr (PY99), purchased from Santa Cruz, Item No. sc-7020; Anti-mouse IgG HRP-linked Antibody, purchased from Santa Cruz, Item No. 7076S; TMB liquid Substrate System, purchased from Sigma-Aldrich, Item No. T0440; Costar Stripwell Microplate No Lid 1×8 Flat Bottom, Certified High Binding, purchased from Sigma-Aldrich, Item No. 42592; 96-well compound plate, purchased from Thermo Scientific, Item No. 267245.
• 1. Coating substrate: 1) An appropriate volume of substrate storage solution protein tyrosine kinase (PTK) substrate (poly-Glu-Tyr) was taken, diluted 10 times with PBS, and the concentration was diluted from […]. The mixture was added to a high adsorption 96-well plate at 125 μL per well. The plate was placed in an incubator at 37° C. for overnight coating. 2) After 24 hours, the 96-well plate was taken out, the liquid in the 96-well plate was poured out, cleaned with washing buffer for 3 times, and the incubator at 37° C. was inverted and dried for 2 hours. • 2. Compound preparation and transfer: 1) compound dilution: 10 mM of the test compound storage solution was taken, the compound in 96-well compound plate was diluted with DMSO in multiple steps to obtain the initial concentration of 100× compound as the first concentration, and then DMSO was used for 4-fold gradient dilution, for a total of 6 concentrations; after that, 2 μL of the gradient dilution solution was added to 48 μL of 1× reaction buffer respectively to prepare 4× compound; 2) 4× compounds were transferred: 10 μL of 4× compounds from the 96-well compound plate configured in the previous step were transferred into the dried high adsorption 96-well plate; 10 μL of the following liquids were added to the compound-free control wells and ATP-control wells: 2 μL of DMSO was added to 48 μL of 1× reaction buffer. • 3. Enzyme reaction stage: 1) WEE1 kinase and ATP were prepared into 2× enzyme solution and 4×ATP solution respectively with 1× reaction buffer. In this screening, the final concentration of WEE1 kinase was: 0.15 ng/μL and the final concentration of ATP was: […]; 2) 20 μL of enzyme solution of 2 was added to the high adsorption 96-well plate; 3) 10 μL of 4×ATP solution was added to the high adsorption 96-well plate and 10 μL of 1× reaction buffer was added to the ATP-control group; 4) the plate was placed in HERAEUS Multifuge X1R centrifuge at 2000 rpm for 20 s and then placed at room temperature and reacted for 60 min. • 4. Reaction termination stage: 1) the reaction mixture in the plate was poured out, 200 μL of washing buffer was added to each well, and washed for 5 times; the primary antibody P-Tyr (PY99) (dilution ratio 1:2000) was added, 100 μL per well, at room temperature for 30 min. 2) The primary antibody in the plate was poured out, 200 μL of washing buffer was added to each well, and washed for 5 times; the second antibody Anti-mouse IgG HRP-linked Antibody (dilution ratio 1:2000) was added, 100 μL per well, at room temperature for 30 min.

T1 sequence (P30291 whole entry): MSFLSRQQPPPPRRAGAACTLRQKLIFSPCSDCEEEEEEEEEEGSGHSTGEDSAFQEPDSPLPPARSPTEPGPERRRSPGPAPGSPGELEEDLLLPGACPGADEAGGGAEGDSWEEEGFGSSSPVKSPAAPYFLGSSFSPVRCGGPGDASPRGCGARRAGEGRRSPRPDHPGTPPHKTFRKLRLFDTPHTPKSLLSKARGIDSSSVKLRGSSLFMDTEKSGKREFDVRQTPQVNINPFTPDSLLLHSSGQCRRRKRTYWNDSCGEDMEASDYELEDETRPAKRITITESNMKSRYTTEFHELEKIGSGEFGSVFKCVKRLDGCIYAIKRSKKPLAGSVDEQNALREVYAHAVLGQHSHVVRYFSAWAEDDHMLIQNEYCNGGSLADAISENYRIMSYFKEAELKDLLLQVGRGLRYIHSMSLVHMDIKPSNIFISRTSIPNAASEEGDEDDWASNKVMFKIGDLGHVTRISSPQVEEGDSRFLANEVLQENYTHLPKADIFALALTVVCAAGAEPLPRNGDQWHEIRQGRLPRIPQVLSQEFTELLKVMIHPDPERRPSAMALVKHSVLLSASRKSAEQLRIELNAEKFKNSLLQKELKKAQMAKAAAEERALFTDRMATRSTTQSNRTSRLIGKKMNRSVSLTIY

**Q.** Which IC50 does the source give for C=CCn1c(=O)c2cnc(Nc3ccc(C4CCC(N5CCC5)CC4)cc3)nc2n1-c1cccc(C(C)(C)O)n1 (single isomer, unassigned) [Compound I-8-1] here?
**A.** Its IC50 is 1.52 nM.
